Measured values taken from PubChem BioAssay AID256 (DTP/NCI, 2004).
Inconclusive results and toxic doses are left out.

System: CD2F1 mice, L1210 leukemia ip, survival T/C
Experiment: NCI In Vivo Anticancer Drug Screen. Data for tumor model L1210 Leukemia (intraperitoneal) in CD2F1 (CDF1) mice
Conditions: higher = longer survival
How it was run: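 Tumor-bearing mice (transplanted tumor) were split into treated and vehicle control groups, and the measured endpoint of each treated group was divided by that of its vehicle controls.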

[1] = endpoint: mean survival time, dose: 50.0 mg/kg/injection, schedule: Q03HX024 (ip), vehicle: saline
[2] = endpoint: mean survival time, dose: 100.0 mg/kg/injection, schedule: Q04DX003 (ip), vehicle: saline with Tween-80
[3] = endpoint: mean survival time, dose: 200.0 mg/kg/injection, schedule: Q04DX003 (ip), vehicle: saline with Tween-80
[4] = endpoint: mean survival time, dose: 400.0 mg/kg/injection, schedule: Q04DX003 (ip), vehicle: saline with Tween-80
[5] = endpoint: mean survival time, dose: 400.0 mg/kg/injection, schedule: Q01DX009 (ip), vehicle: saline
[6] = endpoint: mean survival time, dose: 100.0 mg/kg/injection, schedule: Q01DX001 (ip), vehicle: saline with Tween-80
[7] = endpoint: mean survival time, dose: 100.0 mg/kg/injection, schedule: Q01DX009 (ip), vehicle: saline with Tween-80
[8] = endpoint: mean survival time, dose: 200.0 mg/kg/injection, schedule: Q01DX001 (ip), vehicle: saline with Tween-80
[9] = endpoint: mean survival time, dose: 200.0 mg/kg/injection, schedule: Q01DX009 (ip), vehicle: saline with Tween-80
[10] = endpoint: mean survival time, dose: 400.0 mg/kg/injection, schedule: Q01DX001 (ip), vehicle: saline with Tween-80
[11] = endpoint: mean survival time, dose: 400.0 mg/kg/injection, schedule: Q01DX009 (ip), vehicle: saline with Tween-80

NC(=S)N/N=C/c1ncccc1O
T/C (endpoint: mean survival time, dose: 3.13 mg/kg/injection, schedule: Q03HX024 (ip), vehicle: saline): 117 % of control | T/C [1]: 102 % of control | T/C (endpoint: median survival time, dose: 21.8 mg/kg/injection, schedule: Q03HX008 (ip), vehicle: suspension in saline): 156 % of control | T/C (endpoint: median survival time, dose: 32.5 mg/kg/injection, schedule: Q03HX008 (ip), vehicle: suspension in saline): 164 % of control | T/C (endpoint: median survival time, dose: 45.0 mg/kg/injection, schedule: Q04DX003 (ip), vehicle: suspension in saline): 121 % of control | T/C (endpoint: median survival time, dose: 48.5 mg/kg/injection, schedule: Q03HX008 (ip), vehicle: suspension in saline): 174 % of control | T/C (endpoint: median survival time, dose: 50.0 mg/kg/injection, schedule: Q01DX005 (ip), vehicle: saline): 156 % of control | T/C (endpoint: median survival time, dose: 72.4 mg/kg/injection, schedule: Q03HX008 (ip), vehicle: suspension in saline): 109 % of control | T/C (endpoint: median survival time, dose: 90.0 mg/kg/injection, schedule: Q04DX003 (ip), vehicle: suspension in saline): 122 % of control | T/C (endpoint: median survival time, dose: 100.0 mg/kg/injection, schedule: Q01DX005 (ip), vehicle: suspension in saline): 150 % of control | T/C (endpoint: median survival time, dose: 108.0 mg/kg/injection, schedule: Q04DX003 (ip), vehicle: suspension in saline): 152 % of control | T/C (endpoint: median survival time, dose: 180.0 mg/kg/injection, schedule: Q03HX024 (ip), vehicle: saline): 86 % of control | T/C (endpoint: median survival time, dose: 200.0 mg/kg/injection, schedule: Q01DX005 (ip), vehicle: suspension in saline): 117 % of control | T/C (endpoint: median survival time, dose: 241.0 mg/kg/injection, schedule: Q04DX003 (ip), vehicle: suspension in saline): 151 % of control | T/C (endpoint: median survival time, dose: 360.0 mg/kg/injection, schedule: Q04DX003 (ip), vehicle: suspension in saline): 161 % of control | T/C (endpoint: median survival time, dose: 537.0 mg/kg/injection, schedule: Q04DX003 (ip), vehicle: suspension in saline): 109 % of control | T/C (endpoint: median survival time, dose: 720.0 mg/kg/injection, schedule: Q04DX003 (ip), vehicle: suspension in saline): 119 % of control

O=Nc1sc2ccccc2c1O
T/C [2]: 104 % of control | T/C [3]: 96 % of control | T/C [4]: 96 % of control

CC(=O)OCC1OC(n2ncc(=O)[nH]c2=O)C(OC(C)=O)C1OC(C)=O (stereo unspecified)
T/C (endpoint: mean survival time, dose: 12.5 mg/kg/injection, schedule: Q03HX024 (ip), vehicle: saline): 112 % of control | T/C (endpoint: mean survival time, dose: 25.0 mg/kg/injection, schedule: Q03HX024 (ip), vehicle: saline): 116 % of control | T/C [1]: 106 % of control | T/C (endpoint: mean survival time, dose: 100.0 mg/kg/injection, schedule: Q01DX001 (ip), vehicle: saline): 106 % of control | T/C (endpoint: mean survival time, dose: 200.0 mg/kg/injection, schedule: Q01DX001 (ip), vehicle: saline): 103 % of control | T/C (endpoint: mean survival time, dose: 400.0 mg/kg/injection, schedule: Q01DX001 (ip), vehicle: saline): 106 % of control | T/C [5]: 108 % of control | T/C (endpoint: mean survival time, dose: 800.0 mg/kg/injection, schedule: Q01DX001 (ip), vehicle: saline): 117 % of control | T/C (endpoint: mean survival time, dose: 800.0 mg/kg/injection, schedule: Q01DX009 (ip), vehicle: saline): 93 % of control

COc1ccc(NC(=O)CC(C)(C)C(=O)O)cc1
T/C [2]: 101 % of control | T/C [3]: 100 % of control | T/C [4]: 103 % of control

CC(/C=C/C1OC(=O)C=CC1C)=C\C(C)C/C=C/C(C)=C/C(C)C(=O)C(C)C(O)C(C)C/C(C)=C/C(=O)O (stereo unspecified)
T/C (endpoint: median survival time, dose: 9.0 micrograms/kg/injection, schedule: Q01DX009 (ip), vehicle: saline + alcohol): 106 % of control | T/C (endpoint: median survival time, dose: 15.0 micrograms/kg/injection, schedule: Q01DX009 (ip), vehicle: saline + alcohol): 119 % of control | T/C (endpoint: median survival time, dose: 18.0 micrograms/kg/injection, schedule: Q01DX005 (ip), vehicle: alcohol): 110 % of control | T/C (endpoint: median survival time, dose: 18.0 micrograms/kg/injection, schedule: Q01DX005 (ip), vehicle: saline + alcohol): 106 % of control | T/C (endpoint: median survival time, dose: 25.0 micrograms/kg/injection, schedule: Q01DX009 (ip), vehicle: saline + alcohol): 117 % of control | T/C (endpoint: median survival time, dose: 30.0 micrograms/kg/injection, schedule: Q01DX005 (ip), vehicle: alcohol): 110 % of control | T/C (endpoint: median survival time, dose: 30.0 micrograms/kg/injection, schedule: Q01DX005 (ip), vehicle: saline + alcohol): 107 % of control | T/C (endpoint: median survival time, dose: 50.0 micrograms/kg/injection, schedule: Q01DX005 (ip), vehicle: alcohol): 115 % of control | T/C (endpoint: median survival time, dose: 50.0 micrograms/kg/injection, schedule: Q01DX005 (ip), vehicle: saline + alcohol): 108 % of control | T/C (endpoint: median survival time, dose: 83.33 micrograms/kg/injection, schedule: Q01DX005 (ip), vehicle: alcohol): 115 % of control | T/C (endpoint: median survival time, dose: 83.33 micrograms/kg/injection, schedule: Q01DX005 (ip), vehicle: saline + alcohol): 116 % of control | T/C (endpoint: median survival time, dose: 138.89 micrograms/kg/injection, schedule: Q01DX005 (ip), vehicle: alcohol): 122 % of control | T/C (endpoint: median survival time, dose: 138.89 micrograms/kg/injection, schedule: Q01DX005 (ip), vehicle: saline + alcohol): 111 % of control

COc1ccc(Cc2nccc3cc(OC)c(OC)cc23)cc1OC
T/C (endpoint: mean survival time, dose: 9.4 mg/kg/injection, schedule: Q04DX003 (ip), vehicle: water): 115 % of control | T/C (endpoint: mean survival time, dose: 18.7 mg/kg/injection, schedule: Q04DX003 (ip), vehicle: water): 93 % of control | T/C (endpoint: mean survival time, dose: 37.5 mg/kg/injection, schedule: Q04DX003 (ip), vehicle: water): 96 % of control | T/C (endpoint: mean survival time, dose: 50.0 mg/kg/injection, schedule: Q01DX009 (ip), vehicle: water): 96 % of control

OCN(CO)c1nc(N(CO)CO)nc(N(CO)CO)n1
T/C (endpoint: mean survival time, dose: 6.3 mg/kg/injection, schedule: Q01DX009 (ip), vehicle: saline with Tween-80): 92 % of control | T/C (endpoint: mean survival time, dose: 12.5 mg/kg/injection, schedule: Q01DX009 (ip), vehicle: saline with Tween-80): 96 % of control | T/C (endpoint: mean survival time, dose: 25.0 mg/kg/injection, schedule: Q01DX009 (ip), vehicle: saline with Tween-80): 87 % of control

CSc1nc2cc(C)c(C)cc2[nH]1
T/C [6]: 103 % of control | T/C [7]: 97 % of control | T/C [8]: 97 % of control | T/C [9]: 97 % of control | T/C [10]: 105 % of control | T/C [11]: 94 % of control

CC(=O)OC1CC2(O)C3CCC4CC(O)CCC4(C)C3CCC2(C)C1C1=CC(=O)OC1 (stereo unspecified)
T/C [6]: 98 % of control | T/C [8]: 101 % of control

O=C1/C(=C/c2ccc(Cl)cc2Cl)CCC/C1=C\c1ccc(Cl)cc1Cl
T/C [7]: 87 % of control

Cc1cnc(Br)c(Br)c1
T/C [6]: 101 % of control | T/C [7]: 110 % of control | T/C [8]: 101 % of control | T/C [9]: 100 % of control | T/C [10]: 103 % of control | T/C [11]: 100 % of control

O=C1C(c2ccccc2)=C(c2ccccc2)CC1O (stereo unspecified)
T/C [2]: 103 % of control | T/C [3]: 91 % of control | T/C [4]: 103 % of control

CC1NC(=O)OC1(C)c1ccccc1 (stereo unspecified)
T/C (endpoint: mean survival time, dose: 100.0 mg/kg/injection, schedule: Q04DX002 (ip), vehicle: saline with Tween-80): 103 % of control | T/C (endpoint: mean survival time, dose: 200.0 mg/kg/injection, schedule: Q04DX002 (ip), vehicle: saline with Tween-80): 98 % of control

CC(=O)C1CCC2C3=CC=C4CC(OC(=O)CCC(C)C)CCC4(C)C3CCC12C (stereo unspecified)
T/C [7]: 105 % of control | T/C [9]: 97 % of control | T/C [11]: 101 % of control

O=C/C=C/Nc1ccccc1
T/C (endpoint: mean survival time, dose: 100.0 mg/kg/injection, schedule: Q01DX009 (ip), vehicle: saline): 94 % of control | T/C (endpoint: mean survival time, dose: 200.0 mg/kg/injection, schedule: Q01DX009 (ip), vehicle: saline): 102 % of control | T/C [5]: 96 % of control

COC(=O)c1cc(C2OC3OC(C)(C)OC3C2OCc2ccccc2)nn1-c1ccc([N+](=O)[O-])cc1 (stereo unspecified)
T/C (endpoint: median survival time, dose: 11.5 mg/kg/injection, schedule: Q01DX005 (ip), vehicle: other): 101 % of control | T/C (endpoint: median survival time, dose: 23.0 mg/kg/injection, schedule: Q01DX005 (ip), vehicle: other): 100 % of control | T/C (endpoint: median survival time, dose: 46.0 mg/kg/injection, schedule: Q01DX005 (ip), vehicle: other): 100 % of control | T/C (endpoint: median survival time, dose: 92.0 mg/kg/injection, schedule: Q01DX005 (ip), vehicle: other): 100 % of control

CC(=O)Nc1nnc(Cl)s1
T/C (endpoint: mean survival time, dose: 100.0 mg/kg/injection, schedule: Q04DX002 (ip), vehicle: saline): 101 % of control | T/C (endpoint: mean survival time, dose: 200.0 mg/kg/injection, schedule: Q04DX002 (ip), vehicle: saline): 97 % of control | T/C (endpoint: mean survival time, dose: 400.0 mg/kg/injection, schedule: Q04DX002 (ip), vehicle: saline): 104 % of control

O=C(O)C(O)C(O)C(O)CO.[Zn+2] (stereo unspecified)
T/C (endpoint: mean survival time, dose: 6.25 mg/kg/injection, schedule: Q01DX005 (ip), vehicle: saline with Tween-80): 108 % of control | T/C (endpoint: mean survival time, dose: 12.5 mg/kg/injection, schedule: Q01DX005 (ip), vehicle: saline with Tween-80): 108 % of control | T/C (endpoint: mean survival time, dose: 12.5 mg/kg/injection, schedule: Q04DX003 (ip), vehicle: saline): 95 % of control | T/C (endpoint: mean survival time, dose: 25.0 mg/kg/injection, schedule: Q01DX005 (ip), vehicle: saline with Tween-80): 103 % of control | T/C (endpoint: mean survival time, dose: 25.0 mg/kg/injection, schedule: Q04DX003 (ip), vehicle: saline): 95 % of control | T/C (endpoint: mean survival time, dose: 50.0 mg/kg/injection, schedule: Q04DX003 (ip), vehicle: saline): 101 % of control
